From article PMC6920794, “Evaluation of Novel Chalcone-Thiosemicarbazones Derivatives as Potential Anti-Leishmania amazonensis Agents and Its HSA Binding Studies” (Biomolecules, 2019)

Legend:
[1] = tested on: L. amazonensis promastigotes; assay: Promastigote assay (MTT); format: cell-based, Leishmania amazonensis; conditions: Leishmania amazonensis, after 48 h of culture (table title)
Protocol: Leishmania amazonensis (MHOM/BR/77/LTB0016) were regularly isolated from infected mice and maintained in culture as promastigotes through weekly passages in Schneider’s medium (Sigma Aldrich, St. Louis, MO, USA) supplemented with 10% (v/v) heat-inactivated fetal calf serum, penicillin (100 UI/mL), and streptomycin (100 µg/mL) at 299K. Parasites were maintained until the 10th passage. The Animal Ethics Committee of the Oswaldo Cruz Foundation (license number L026/2015) approved this study.
Promastigotes of L. amazonensis (1 × 10^6 promastigotes/mL) in the 4th day on culture in the conditions described above were incubated with the chalcones serially diluted in culture medium (0.032% v/v DMSO at the highest concentration tested) on a 96-well cell culture plate (TPP™ test plate, Switzerland). The assayed concentrations ranged from 50 to 1.56 µM for all chalcone-thiosemicarbazones (5a–g) and for pentamidine (Sigma Aldrich, St. Louis, MO, USA). […] All compounds were analyzed in at least three experiments performed in triplicate. Pentamidine was used as the reference drug and diluted in the same concentrations used for 5a–g. The vehicle (DMSO) had no effect on the parasites.
The antileishmanial activity was evaluated by adding 22 µL of 3-(4,5-dimethylthiazol-2-yl)-2-5diphenyltetrazolium bromide (MTT) at 5 mg/mL (Sigma Aldrich, St. Louis, MO, USA) to each well. After 2 h, 80 µL of DMSO was added and the optical density was determined at a wavelength of 570 nm in a microplate reader (µQuant Bio-Tek Instruments®, Winooski). The assays were carried out in triplicate in 96-well plates (Costar, New York, USA). The inhibition percentage was estimated by the comparison with the non-treated control. The values for the inhibitory concentration for 50% of the promastigotes (IC50) were calculated by a sigmoidal model.

[2] = tested on: L. amazonensis intracellular amastigotes; assay: Intracellular amastigotes assay in infected macrophages; format: cell-based, Leishmania amazonensis
Protocol: Peritoneal macrophages were obtained BALB/c mice with cold Roswell Park Memorial Institute (RPMI) 1640 medium (Sigma Aldrich, St. Louis, MO, USA) supplemented as above. The cell suspension was adjusted to 1 × 10^6 macrophage/mL and incubated in a LAB-TEK 8-chamber slide (Nunc, Roskilde, Denmark) at 310K and 5% CO2 for 1 h. Non-adherent cells were removed and stationary-phase L. amazonensis promastigotes were added at a 3:1 parasite/macrophage ratio. The cultures were incubated for a further 4 h, and free parasites were removed. The chambers were washed, and the monolayers were incubated with the compounds for 48 h. Infected macrophages incubated only in the culture medium were used as controls to compare with the infected treated macrophages. […] The cultures were fixed in methanol and stained with the hematological system Instant Prov (Newprov®, Curitiba, Brazil). The slides were examined by light microscopy, and the number of infected macrophages and the mean number of parasites per macrophage were determined in 100 cells counted. The experiments were performed twice in triplicate. The percentage of infected macrophages was calculated by dividing the number of infected macrophages by the total number of macrophages (infected and uninfected) counted on the slides, multiplied by 100. To determine the infection index, the percentage of infected macrophages was multiplied by the mean number of parasites per macrophage. The percentage inhibition of infection was calculated by multiplying the difference between the infection index of the control and the compound by 100 and dividing by the infection index (IF) of the control using the Equation (1):IF = % infected cells × amastigotes number/total number of macrophages(1) The IC50 ± SD (SD: standard deviation) values were obtained by a sigmoidal model using Origin 6.0 with statistical error limits up to 10%. All tests were conducted in duplicate for each concentration, and two independent assays were performed.

[3] = tested on: murine peritoneal macrophages; assay: Macrophage cytotoxicity (resazurin); format: cell-based; conditions: BALB/c, mouse, 48 h, pH 7.2
Protocol: Peritoneal macrophages from albino laboratory-bred strain (BALB/c) mice were obtained in RPMI 1640 medium at pH 7.2 (Gibco, New York, NY, USA) supplemented with 10% (v/v) heat-inactivated fetal bovine serum, 100 U/mL penicillin and 0.1 mg/mL of streptomycin and distributed (1 × 10^6 macrophages/well) in triplicate in 96-well plates (Falcon Co., Franklin Lakes, USA) and incubated for 1 h in a 5% CO2 atmosphere incubator at 310K. The supernatant was removed, and the compounds were added to the plate at concentrations from 10 µM to 50 µM. Next, the cultures were incubated for 48 h in a CO2 incubator at 310K. After incubation, the supernatant was removed and a resazurin solution (50 µM) was added to each well and incubated at 310K for 4 h. Furthermore, the fluorescence was measured using a wavelength of 560 nm for excitation and 590 nm for detection (Molecular Devices, Silicon Valley, USA). Results were expressed as the percentage of viable cells compared to the control cells treated with the highest DMSO dose used to dissolve the drugs. The 50% cytotoxic concentration (CC50) was calculated using GraphPad Prism 6.0 software (GraphPad Company, San Diego, CA, USA).

[4] = biological target: T1, human serum albumin (HSA) (Homo sapiens, UniProt P02768); assay: HSA circular dichroism (α-helix content); format: binding; conditions: 310K, 5e 2.78 × 10^−5 M
T1 construct: purchased Sigma Aldrich, St. Louis, MO, USA
T1 sequence (P02768 25-609): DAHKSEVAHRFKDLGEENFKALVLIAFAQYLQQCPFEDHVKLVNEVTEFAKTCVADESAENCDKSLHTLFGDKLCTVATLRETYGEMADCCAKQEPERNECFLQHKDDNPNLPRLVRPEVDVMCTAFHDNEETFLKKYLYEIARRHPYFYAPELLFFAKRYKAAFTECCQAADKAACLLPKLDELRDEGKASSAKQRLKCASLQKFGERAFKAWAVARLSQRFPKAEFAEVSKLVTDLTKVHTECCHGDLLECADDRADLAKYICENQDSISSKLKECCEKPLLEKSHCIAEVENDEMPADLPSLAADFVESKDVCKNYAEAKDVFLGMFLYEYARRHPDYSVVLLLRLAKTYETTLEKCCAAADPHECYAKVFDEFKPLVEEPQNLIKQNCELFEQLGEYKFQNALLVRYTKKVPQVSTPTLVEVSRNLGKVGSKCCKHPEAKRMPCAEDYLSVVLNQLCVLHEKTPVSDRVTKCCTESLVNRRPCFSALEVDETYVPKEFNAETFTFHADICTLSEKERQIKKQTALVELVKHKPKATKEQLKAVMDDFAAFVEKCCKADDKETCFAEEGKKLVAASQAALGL
Protocol: Circular dichroism (CD) spectra were measured in the same equipment used in the steady-state fluorescence analysis, using 200–250 nm range at 310K (human body temperature). The experiment was conducted for a 3.0 mL HSA solution (1.00 × 10^−6 M, in PBS) in the absence and presence of 5e (2.78 × 10^−5 M). Each spectrum obtained was the average of three scans. The intensity of the signal from the CD spectra was expressed as mean residue ellipticity (MRE), defined according to Equation (7):(7) MRE=θ/10×n×l×Cp where θ, n, l and Cp are the observed CD (in millidegrees), number of amino acid residues (585 for HSA), optical pathlength of the cell (1.00 cm) and molar concentration of HSA (1.00 × 10^−6 M), respectively.
In order to calculate quantitative information on the percentage of changes in the α-helix content upon 5e binding, the resulting MRE at 208 and 222 nm (far-UV region) were analyzed according to Equations (8A) and (8B):(8A) α−helix%=(−MRE208−4000)/(33000−4000)×100 (8B) α−helix%=(−MRE222−2340)/30300×100

[5] = constant of substituent 4-X; cited from earlier work

Q: Which IC50 [1] does the source give for NC(=S)N/N=C(\C=C\c1ccc(Cl)cc1)c1ccccc1 [Compound 5e, (1E,2E)-3-(4′-chlorophenyl)-1-phenylprop-2-en-1-one thiosemicarbazone] here?
A: The IC50 was 5.22 ± 0.75 µM.

Q: And the IC50 ([2]; Leishmania amazonensis, Peritoneal macrophage, in Mus musculus, 48 h, L. amazonensis-infected murine peritoneal macrophages, 48 h of culture)?
A: Its IC50 is 4.47 ± 0.42 µM.

Q: What about the “Selectivity Index (SI)” value ([2]; SI = LD50/IC50 intracellular amastigotes) of the same compound?
A: Its value is 7.27.

Q: And the “Macrophages LD50” value [3]?
A: The value was 32.48 ± 1.81 µM.

Q: And the “α-helix content of HSA:5e at 222 nm” value ([4]; HSA alone 53.5%)?
A: Its value is 52.2%.

Q: And the “α-helix content of HSA:5e at 208 nm” value ([4]; HSA alone 57.1%)?
A: The value was 55.2%.

Q: What about the “Hammett constant σp” value [5] of the same compound?
A: Its value is 0.34.

Q: What about the “Hansh constant π (lipophilicity)” value [5] of the same compound?
A: The value was 0.71.

Q: And the “Taft constant Es” value [5]?
A: The value was −0.97.

Q: What about the “molecular refractivity MR” value [5] of the same compound?
A: Its value is 0.60.
